Reference: publication PMC11314561, “Design and Synthesis of Novel Aminoindazole-pyrrolo[2,3-b]pyridine Inhibitors of IKKα That Selectively Perturb Cellular Non-Canonical NF-κB Signalling” (Molecules, 2024)

Columns and labels:
IKKα = biological target: T1, IKKα (Homo sapiens, UniProt O15111); test: DELFIA kinase assay, IKKα; type: biochemical; settings: for Ki: DELFIA kinase assay; for Selectivity for IKKα over IKKβ: ratio of Ki IKKβ to Ki IKKα
T1 sequence (O15111 1-745): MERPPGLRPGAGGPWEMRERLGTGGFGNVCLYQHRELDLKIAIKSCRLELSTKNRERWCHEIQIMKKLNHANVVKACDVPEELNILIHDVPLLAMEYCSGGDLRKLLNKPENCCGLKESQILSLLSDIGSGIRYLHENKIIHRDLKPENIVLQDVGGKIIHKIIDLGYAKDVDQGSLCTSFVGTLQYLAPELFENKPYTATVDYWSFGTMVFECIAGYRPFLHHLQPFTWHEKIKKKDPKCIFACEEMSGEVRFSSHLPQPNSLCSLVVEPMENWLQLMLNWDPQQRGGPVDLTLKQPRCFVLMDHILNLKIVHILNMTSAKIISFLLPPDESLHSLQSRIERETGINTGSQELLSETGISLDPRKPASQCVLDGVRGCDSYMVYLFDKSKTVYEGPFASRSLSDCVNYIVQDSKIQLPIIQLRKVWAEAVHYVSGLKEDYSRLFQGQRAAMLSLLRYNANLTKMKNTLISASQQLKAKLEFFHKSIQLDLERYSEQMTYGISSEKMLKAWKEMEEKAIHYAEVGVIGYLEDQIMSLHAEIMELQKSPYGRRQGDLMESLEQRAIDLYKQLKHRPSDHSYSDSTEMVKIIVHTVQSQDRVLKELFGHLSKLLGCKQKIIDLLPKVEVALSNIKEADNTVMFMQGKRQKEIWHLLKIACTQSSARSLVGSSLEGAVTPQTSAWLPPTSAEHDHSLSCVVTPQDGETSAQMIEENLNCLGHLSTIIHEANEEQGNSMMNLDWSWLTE
Source text: To examine the pyrrolo[2,3-b]pyridines as an alternative scaffold, we adopted the AIPP core because it had similar dimensions to SU909 (1), with HBD/HBA motifs positioned at the scaffold extremities to interact with both the hinge region and the G-loop wall of IKKα, a rationale we had previously proposed as the basis for imparting selectivity. A preliminary set of AIPP derivatives was designed and synthesised to explore its utility as an IKK-targeting scaffold, whilst incorporating additional functionality through which to introduce selectivity for the IKKα isoform (2–4; Figure 3). This was achieved by initially adopting two different approaches: either appending a hydrophobic moiety to the pyrrolo[2,3-b]pyridine motif as a fused form to afford the tricyclic derivatives 2 and 3, or as a phenyl substituent to introduce flexibility with respect to the central pyrrolo[2,3-b]pyridine moiety in 4. When assessed against IKKα and IKKβ using our in-house DELFIA kinase assay […] The pyrrolo[2,3-b]pyridine was bound to the hinge region in the classical HBA/HBD motif with the GK+3 amide backbone, whilst the aminoindazole projected towards the top of the pocket to interact with the G-loop (Figure 4A). […] In both isoforms, the 2-phenyl moiety protruded away from the hinge towards the exposed solvent area.
IKKα and IKKβ inhibitory activity were determined using a dissociation-enhanced ligand fluorescent immunoassay (DELFIA) based on the protocol of HTScan™ IKKβ Kinase Assay (Cell Signaling Technology, Danvers, MA, USA) as described in [24].

[1] = test system: IKKβ-mediated IκBα degradation in U2OS cells; test: TNFα-stimulated IκBα degradation, Western blotting; type: cell-based; settings: for effect on TNFα-stimulated IκBα degradation: 0.3–30 µM
Procedure: (§1) To assess the translation of the biochemical potencies and selectivities described above to a cell-based setting, exemplars from the series were initially examined for inhibitory action against IKKs in the U2OS osteosarcoma cell line. This cell type was utilised to represent cells with a proliferative phenotype dependent on the constitutively activated IKKα-mediated non-canonical NF-κB pathway. Compounds 5r [SU1261]
(§2) U2OS cells were cultured in McCoy’s 5A Modified Medium, and PC-3M-Luc-C6 prostate cancer cells were cultured in Minimum Essential Medium (MEM), each containing 10% (v/v) Foetal Calf Serum (FCS), L-glutamine ([…]), and penicillin/streptomycin (250 units/mL; 100 μg/mL) and incubated in a humidified atmosphere at 37 °C with 5% (v/v) CO2. Cells were grown to near confluence and prior to experimentation rendered quiescent by serum deprivation for 24 h.
(§3) To examine the potential impact of compounds on canonical NF-κB signalling, cells were then exposed to vehicle (DMSO; 0.05% (v/v)) or increasing concentrations of compounds (0.01–30 µM) for 1 h prior to treatment with TNF⍺ (20 ng/mL) for 30 min. Whole-cell extracts were prepared, and the status of IκB⍺, phospho-p65 (Ser536), p65, and phospho-p105 ([…]) was also assessed by Western blotting.
(§4) Each figure/panel of Western blotting data represents one of at least three separate experiments. Western blots were scanned and imaged using Adobe Photoshop 5.0.2 software and polypeptide bands were semi-quantified by scanning densitometry using the Scion Image program. Data were normalised to fold expression/inhibition relative to ‘agonist plus vehicle’ treatment and expressed as mean ± s.e.m. IC50 values were established by curve fitting using the Hill equation.
(§5) Figure 11 Compound 5r [SU1261] inhibits FCS-stimulated p100 phosphorylation (Ser866/870) with no impact on TNFα-stimulated IkBα degradation and limited impact on phosphorylation of p65 (Ser536) in U2OS osteosarcoma cells. […] (0.3–30 µM) for 1 h prior to treatment with FCS (10% (v/v)) for 4 h, and phospho-p100 (Ser866/870) was assessed by Western blotting. […]

[2] = test system: IKKβ-mediated p65 phosphorylation (Ser536) in U2OS cells; test: TNFα-stimulated p65 (Ser536) phosphorylation, Western blotting; type: cell-based; settings: Homo sapiens, 1 h pre-treatment, TNFα 30 min
Procedure: as §1, §2, §3, §4, §5

| SMILES | Ki (IKKα) [nM] | IC50 ([1]; Homo sapiens, 1 h pre-treatment, TNFα 30 min) [nM] | IC50 [2] [nM] | effect on TNFα-stimulated IκBα degradation [1] | Selectivity for IKKα over IKKβ (IKKα; listed as 6g [SU1349]) [fold] | Selectivity for IKKα over IKKβ (IKKα; listed as SU1349) [fold] |
| --- | --- | --- | --- | --- | --- | --- |
| Nc1n[nH]c2ccc(-c3ccnc4[nH]c(-c5ccccc5)cc34)cc12 [Compound 4] | 3 | 620 | 300 |  |  |  |
| Nc1n[nH]c2ccc(-c3ccnc4[nH]c(-c5cccc(OCc6ccccc6)c5)cc34)cc12 [Compound 5r [SU1261]] | 10 |  | 5640 | did not impact |  |  |
| Nc1n[nH]c2ccc(-c3ccnc4[nH]c(-c5ccnc(OCc6ccccc6)c5)cc34)cc12 [Compound 6g [SU1349]] | 16 |  | > 30000 | no significant inhibition | 209 | 209.5 |
